From US11685761B2, “Cyclic di-nucleotide compounds as sting agonists” (Merck Sharp & Dohme Corp., priority 2017, dated 2023)
Like-named read-outs stand apart in the source and are kept apart here.

Key:
full-length HAQ STING = target: T1, full-length HAQ STING (Homo sapiens, UniProt Q86WV6, G230A/H232R/R293Q/R71H); test: 3H-cGAMP filtration binding assay (HAQ STING); details: competition with tritiated cGAMP ligand; T. ni cell membranes overexpressing full-length HAQ STING
T1 construct: made in house; host or cells: Trichoplusia ni (Hi-Five) insect cells, baculovirus generated in Sf21; crude membranes
T1 sequence (Q86WV6 with tags, fused parts or gaps R71H/G230A/H232R/R293Q): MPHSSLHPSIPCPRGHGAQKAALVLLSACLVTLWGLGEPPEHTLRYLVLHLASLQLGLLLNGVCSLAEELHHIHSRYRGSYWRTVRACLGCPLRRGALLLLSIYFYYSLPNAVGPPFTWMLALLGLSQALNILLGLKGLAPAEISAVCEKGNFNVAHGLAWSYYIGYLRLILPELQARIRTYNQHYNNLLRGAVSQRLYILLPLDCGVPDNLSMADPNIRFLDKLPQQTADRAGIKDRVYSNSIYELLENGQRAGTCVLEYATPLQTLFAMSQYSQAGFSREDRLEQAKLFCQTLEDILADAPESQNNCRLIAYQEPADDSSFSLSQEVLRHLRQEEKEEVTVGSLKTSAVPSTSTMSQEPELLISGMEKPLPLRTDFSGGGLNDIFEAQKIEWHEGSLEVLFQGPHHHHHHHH
Excerpt: The ability of compounds to bind STING is quantified by the ability to compete with tritiated cGAMP ligand for human STING receptor membrane using a radioactive filter-binding assay. The binding assay employs STING receptor obtained from Hi-Five cell membranes overexpressing full-length HAQ STING prepared in-house and tritiated cGAMP ligand also purified in-house.
The ability of compounds to bind STING is quantified by their ability to compete with tritiated cGAMP ligand for human STING receptor membrane using a radioactive filter-binding assay. The binding assay employs STING receptor obtained from Trichoplusia ni cell membranes (T. ni; Expression Systems, cat #94-002F, www.expressionsystems.com) overexpressing full-length HAQ STING and tritiated cGAMP ligand.
The basic HAQ STING filtration assay protocol is as follows:
The compounds were serially titrated by the Hamilton STARPlus CORE in a 96-well plate (Greiner, #651201) using a 1:3 ten-point dose response format. […] 148 uL of prepared membrane was then manually added to each well of a 96-well deep-well polypropylene plate (Fisher Scientific, #12-566-121). Following membrane addition, 2 uL of either titrated test compound, DMSO control (Sigma #276855), or cold cGAMP control was added to the appropriate wells using a BIOMEK FX. Compound and membrane then preincubated for 60 min at RT to allow compound binding to equilibrate. Following equilibration, 8 nM of [^3H] c-GAMP ligand was prepared by diluting into assay buffer, and 50 uL of this working stock was then manually added to each well of the assay plate. Plates were then incubated at RT for 60 min, and the contents of each assay plate were then filtered through a 96-well GF/B filter plate (PerkinElmer, #6005250) using a TOMTEC MACH III Cell Harvester equipped with 20 mM HEPES buffer (Fisher Scientific, #BP299500). The filter plates were then dried at 55° C. for 30 min using a pressurized oven before 30 uL of ULTIMA GOLD F scintillate was added to each well. Tritium levels for each reaction well were then measured using a PerkinElmer TopCount plate reader.
After normalization to controls, the percent activity for each compound concentration was calculated by measuring the amount of remaining radioactivity. The plot of percent activity versus the log of compound concentration was fit with a 4-parameter dose response equation to calculate EC50 values.

[1] = system: IFN-β secretion from THP1 cells; test: IFN-β secretion in THP1 cell culture (5 h); assay type: cell-based, human; details: THP1 cells, 5 h incubation, compound at 30 μM, 30 uM cGAMP = 100%; for activation at 30 µM: Homo sapiens, read-out: % Effect at 30 μM relative to 2′3′-cGAMP
Experimental: The ability of compounds to stimulate the secretion of interferon-beta from THP1 cells was measured using a human IFN-β AlphaLISA kit (Perkin Elmer, Cat. No. AL265F). The basic protocol is as follows:
The cell viability and count was ascertained using a Beckman Coulter V-Cell XR cell counter. The cell suspension was centrifuged at 200×g for 5 min at RT. Cells were resuspended to a density of 0.8×10^6/mL in 37° C. assay medium. Subsequent liquid transfers were performed using either a Matrix electronic multichannel pipette or an Agilent Bravo Automated Liquid Handling Platform.
The assay was started by dispensing 40 μL of the previously prepared cell suspension into the wells of the plate containing compounds. After 5 h incubation at 37° C., 5% CO2 in a humidified atmosphere, the plate of cells and compounds was centrifuged at 200×g for 5 min at RT. […] To these supernatant-containing wells was added 10 μL of 5× Anti-Analyte Acceptor beads (50 μg/mL of AlphaLISA HiBlock Buffer) and incubated for 30 min at RT while shaking on an orbital plate shaker. To each well was added 10 μL of 5× Biotinylated Antibody Anti-analyte (5 nM in AlphaLISA HiBlock Buffer) and incubated on an orbital plate shaker for 60 min at RT or overnight at 4° C. To each well was added 25 μL of 2× SA-Donor beads (80 μg/mL in AlphaLISA HiBlock Buffer) and incubated for 30-45 min at RT in the dark while shaking on an orbital plate shaker. The plate was then read on a Perkin Elmer Envision (λex680 nm, λem=570 nm). The percent effect of the AlphaLISA signal at each compound concentration was calculated based on 30 uM cGAMP positive controls and 0.3% DMSO negative controls. The plot of percent effect versus the log of compound concentration was fit with a 4-parameter concentration response equation to calculate EC50 values.
Compounds of the disclosure were evaluated for IFN-β secretion in THP1 cell culture as described above.

Compound | EC50 (full-length HAQ STING) [nM] | % Effect at 30 μM relative to 2′3′-cGAMP [1] [%] | activation at 30 µM ([1]; THP-1, 5 h) [%] | activation at 30 µM ([1]; THP-1) [%]
Nc1nc2c(ncn2[C@@H]2O[C@@H]3COP(=O)(S)O[C@H]4[C@@H](O)[C@H](n5cnc6c(=O)[nH]c7nccn7c65)O[C@@H]4COP(=O)(S)O[C@@H]2[C@@H]3F)c(=O)[nH]1 (single isomer, unassigned) [Example 33] | 90 | 83 | – | –
Nc1cc2c(ncn2[C@@H]2O[C@@H]3COP(=O)(S)O[C@H]4[C@H](F)[C@H](n5ccc6c(=O)[nH]cnc65)O[C@@H]4COP(=O)(S)O[C@@H]2[C@@H]3F)c(=O)[nH]1 (stereo partly drawn) [Example 51, 6-amino-1-[(5R,7R,8S,12aR,14R,15S,15aR,16R)-15,16-difluoro-2,10-dioxido-14-(4-oxo-3,4-dihydro-7H-pyrrolo[2,3-d]pyrimidin-7-yl)-2,10-disulfanyl-octahydro-12H-5,8-methanofuro[3,2-l] [1,3,6,9,11,2,10]pentaoxadiphosphacyclotetradecin-7-yl]-1,5-dihydro-4H-imidazo[4,5-c]pyridin-4-one] | 13 | – | 113 | –
Nc1ncnc2c1nnn2[C@@H]1O[C@@H]2COP(=O)(S)O[C@@H]3[C@H](F)[C@@H](COP(=O)(S)O[C@H]2[C@@H]1F)O[C@H]3n1cnc2c(=O)n3cc[nH]c3nc21 (single isomer, unassigned) [Example 24] | 411 | – | – | –
Nc1ncnc2c1ncn2[C@@H]1S[C@@H]2COP(=O)(S)OC3[C@H](n4cnc5c(=O)n6cc[nH]c6nc54)O[C@H](COP(=O)(S)OC2C1O)[C@H]3F (stereo in doubt) [Example 17, 3-[(5R,7R,8R,12aR,14R,15S,15aR,16R)-14-(6-amino-9H-purin-9-yl)-16-fluoro-15-hydroxy-2,10-dioxido-2,10-disulfanyloctahydro-12H-5,8-methanothieno[3,2-l][1,3,6,9,11,2,10]pentaoxadiphosphacyclotetradecin-7-yl]-3,5-dihydro-9H-imidazo[1,2-a]purin-9-one] | 3 | – | 122 | –
Nc1ncnc2c1ncn2[C@@H]1S[C@@H]2CO[P@](=O)(S)O[C@@H]3[C@H](O)[C@@H](CO[P@@](=O)(S)O[C@H]2[C@H]1O)O[C@H]3n1ccc(=O)n2ccnc12 (single isomer, unassigned) [Example 11] | 1740 | – | 5 | –
Nc1ncnc2c1ncn2[C@@H]1O[C@@]23CO[C@@H]1[C@@H]2OP(=O)(S)OC[C@H]1O[C@@H](n2cnc4c(=O)n5cc[nH]c5nc42)[C@H](OP(=O)(S)OC3)[C@@H]1F (single isomer, unassigned) [Example 27] | 61 | 143 | – | –
Nc1ncnc2c1ccn2[C@@H]1O[C@@H]2COP(=O)(S)O[C@@H]3C[C@@H](COP(=O)(S)O[C@H]2[C@@H]1F)O[C@H]3n1cnc2c(=O)[nH]ccc21 (stereo partly drawn) [Example 22, 1-[(5S,7R,8R,12aR,14R,15S,15aR)-14-(4-amino-7H-pyrrolo[2,3-d]pyrimidin-7-yl)-15-fluoro-2,10-dioxido-2,10-disulfanyloctahydro-12H-5,8-methanofuro[3,2-l][1,3,6,9,11,2,10]pentaoxadiphosphacyclotetradecin-7-yl]-1,5-dihydro-4H-imidazo[4,5-c]pyridin-4-one] | – | – | 100 | –
Nc1ncnc2c1ncn2[C@@H]1O[C@@]23CO[C@@H]1[C@@H]2OP(=O)(S)OC[C@H]1O[C@@H](n2cnc4c(=O)n5cc[nH]c5nc42)[C@H](OP(=O)(S)OC3)[C@@H]1F (single isomer, unassigned) [Example 26] | 19 | 153 | – | –
Nc1ncnc2c1ncn2[C@@H]1O[C@@H]2COP(=O)(S)O[C@@H]3[C@@H](F)[C@@H](COP(=O)(S)O[C@H]2[C@@H]1F)O[C@H]3n1cnc2c(=O)[nH]ccc21 (stereo partly drawn) [Example 21, 1-[(5R,7R,8S,12aR,14R,15S,15aR,16S)-14-(6-amino-9H-purin-9-yl)-15,16-difluoro-2,10-dioxido-2,10-disulfanyloctahydro-12H-5,8-methanofuro[3,2-1][1,3,6,9,11,2,10]pentaoxadiphosphacyclotetradecin-7-yl]-1,5-dihydro-4H-imidazo[4,5-c]pyridin-4-one] | – | – | – | 143
Nc1ccnc2c1ccn2[C@H]1C[C@@H]2OP(=O)(S)OC[C@H]3O[C@@H](n4ccc(=O)n5ccnc45)[C@H](OP(=O)(S)OC[C@H]2O1)[C@@H]3O (stereo partly drawn) [Example 34, 8-[(5R,7R,8R,12aR,14R,15aS,16R)-14-(4-amino-1H-pyrrolo[2,3-b]pyridin-1-yl)-16-hydroxy-2,10-dioxido-2,10-disulfanyloctahydro-12H-5,8-methanofuro[3,2-l][1,3,6,9,11,2,10]pentaoxadiphosphacyclotetradecin-7-yl]imidazo[1,2-a]pyrimidin-5(8H)-one] | 1120 | – | 157 | –
O=c1ccn([C@@H]2O[C@@H]3COP(=O)(S)O[C@@H]4[C@H](O)[C@@H](COP(=O)(S)O[C@H]3[C@H]2O)O[C@H]4n2ccc(=O)n3ccnc23)c2nccn12 (stereo partly drawn) [Example 30, 8,8′-[(5R,7R,8R,12aR,14R,15R,15aS,16R)-15,16-dihydroxy-2,10-dioxido-2,10-disulfanyloctahydro-12H-5,8-methanofuro[3,2-l][1,3,6,9,11,2,10]pentaoxadiphosphacyclo-tetradecine-7,14-diyl]bisimidazo[1,2-a]pyrimidin-5(8H)-one] | 37 | – | – | 127
Nc1nc2c(ncn2[C@@H]2O[C@@H]3COP(=O)(S)O[C@H]4C[C@H](n5ccc6c(=O)[nH]cnc65)O[C@@H]4COP(=O)(S)O[C@@H]2C3)c(=O)[nH]1 (single isomer, unassigned) [Example 37] | 49 | – | 102 | –
Nc1nc2c(ncn2[C@@H]2S[C@@H]3COP(=O)(S)O[C@H]4[C@H](F)[C@H](n5ccc6c(=O)[nH]cnc65)O[C@@H]4COP(=O)(S)O[C@@H]2C3)c(=O)[nH]1 (stereo partly drawn) [Example 44, 2-amino-9-[(5S,7R,8R,12aR,14R,15S,15aR)-15-fluoro-2,10-dioxido-14-(4-oxo-3,4-dihydro-7H-pyrrolo[2,3-d]pyrimidin-7-yl)-2,10-disulfanyl-octahydro-12H-5,8-methanofuro[3,2-l] [1,3,9,11,6,2,10]tetraoxathiadiphosphacyclotetradecin-7-yl]-1,9-dihydro-6H-purin-6-one] | 1 | – | 164 | –
Nc1ncnn2c([C@H]3C[C@@H]4O[P@](=O)(S)OC[C@H]5O[C@@H](n6ccc(=O)n7ccnc67)[C@H](O[P@](=O)(S)OC[C@H]4O3)[C@@H]5O)cnc12 (single isomer, unassigned) [Example 8] | 23 | – | 128 | –
Nc1ncnc2c1nnn2[C@@H]1O[C@@H]2COP(=O)(S)O[C@@H]3[C@H](F)[C@@H](COP(=O)(S)O[C@H]2[C@@H]1F)O[C@H]3n1cnc2c(=O)n3cc[nH]c3nc21 (single isomer, unassigned) [Example 23] | 28 | – | – | –
